Measurements from PMC6154683, “High-Throughput Determination of Sodium Danshensu in Beagle Dogs by the LCMS/MS Method, Employing Liquid-Liquid Extraction Based on 96-Well Format Plates” (Molecules : A Journal of Synthetic Chemistry and Natural …, 2017).

What was measured:
[1] = Pharmacokinetic and bioavailability study in beagle dogs after intravenous and oral administration (plasma, LC-MS/MS); assay type: in vivo; conditions: for C0: mean ± SD
Experimental: All the studies on animals were done in accordance with the Guidelines for the Care and Use of Laboratory Animals. Beagle dogs (~10 kg) were purchased from the Shanghai Slack Experimental Animal Co., Ltd. (Shanghai, China) and acclimated in the laboratory for 1 week prior to the experiments, housed in separate cages under room temperature with a 12 h light/dark cycle, and free access to standard diet and water. All the beagle dogs were fasted for 12 h before the experiments with free access to water.
For pharmacokinetics study, 24 beagle dogs were randomly divided into four groups (n = 6). Four different dosages (5 mg/kg, 10 mg/kg, 15 mg/kg I.V., 60 mg/kg P.O.) were designed and were assigned randomly to the four groups of beagle dogs. Blood samples (500 μL) were withdrawn from the foreleg vein into heparinized tubes in strict accordance with the time points of the protocol made in advance. Then after centrifuging at 8000 rpm for 10 min, the supernatant plasma sample was transferred into another tube and frozen at −80 °C until analysis. The time points for blood sampling were listed as follows. Pre-dose and subsequently at 0, 0.03, 0.08, 0.17, 0.33, 0.67, 1, 1.5, 2, 3, 4, 6, 8, and 12 h were used for the three intravenous injection groups, and pre-dose, 0.08, 0.17, 0.25, 0.5, 0.75, 1, 1.5, 2, 3, 4, 6, 8, and 12 h were used for the oral administration group.
For plasma sample preparation, the LLE in 96-well format plate was used. Prior to analysis, all frozen plasma samples, calibration standards, and quality control samples were thawed and allowed to equilibrate at room temperature. The samples were vortexed adequately using a vortex mixer (Beijing Targintech Co. Ltd., Beijing, China) before pipetting. Samples were prepared using LLE in 96-well deep format plate (2 mL, Corning Life Sciences—Axygen Inc., Union City, CA, USA). An automatic multichannel pipette (INTEGRA Biosciences AG, Zizers, Switzerland) was used for liquid transfer steps. Aliquots of 100 μL plasma were transferred into the 96-well deep format plate. Aliquots of 10 μL of IS solution (25 ng/mL) were added to each well except for the well designated for the double blank plasma. Then 20 μL of 2 mol/L hydrochloric acid was added to each well of the plate, and vortexed for 30 s for mixing. The mixed sample was then extracted with 1000 μL methyl tert-butyl ether by vortex-mixing for 3 min in a platform shaker (Grant, Cambridge, UK). After centrifugation at 12,000 rpm for 10 min, 800 μL of the upper organic layer was transferred from the original sample plates into the respective positions of the new 2.0 mL deep 96-well plates. Extracts were concentrated to dryness by an automated concentration evaporation system at 30 °C under a gentle stream of nitrogen (Turbo Vap 96, Biotage AB, Uppsala, Sweden) for 15 min. After drying, the residue was reconstituted with 100 μL of methanol–water (50:50, v/v) and was then vortexed for 3 min and centrifuged for 10 min at 12,000 rpm. A 5 μL aliquot of the supernatant was injected into the LC-MS/MS system for analysis.
The pharmacokinetic analysis was performed using the non-compartmental model analysis. The concentration versus time data and the pharmacokinetic parameters including Cmax, t1/2, Tmax (h), AUC0-t, AUC0-12, MRT, CL, and Vd were assessed via non-compartmental analysis using the BAPP software (version 2.0, Center of Drug Metabolism and Pharmacokinetics, China Pharmaceutical University, Nanjing, china). The absolute bioavailability (%F) of sodium danshensu was estimated via AUC0→∞ values of oral and intravenous administration.

[2] = Stability of sodium danshensu in beagle dog plasma (QC samples); assay type: in vitro ADME; conditions: for Measured (mean ± SD): n = 3; for long-term stability in plasma (in words): beagle dog plasma stored at −80 °C for 20 days
Experimental: The analyte stability determinations comprised ambient temperature stability, long-term stability, autosampler stability, and freeze-thaw cycle stability, which were evaluated by analyzing two QC levels in triplicate. The QC samples were analyzed after storage at room temperature for 2 h, at −80 °C for 20 days, and in the autosampler at room temperature for at least 24 h after extraction and after three freeze-thaw cycles, which consisted of storage at −80 °C for a minimum of 12 h followed by thawing at room temperature.

[3] = dog, plasma, IV 5 mg/kg, beagle dogs
[4] = dog, plasma, IV 10 mg/kg, beagle dogs
[5] = dog, plasma, IV 15 mg/kg, beagle dogs
[6] = dog, plasma, PO 60 mg/kg, beagle dogs

O=C([O-])[C@H](O)Cc1ccc(O)c(O)c1.[Na+] [sodium danshensu, sodium D-(+)-β-(3,4-dihydroxyphenyl) lactate]
AUC(0-inf) [1, 3]: 6870 ± 780 ng·h/mL
AUC(0-t) [1, 3]: 6710 ± 810 ng·h/mL
MRT [1, 3]: 0.88 ± 0.41 h
Vd [1, 3]: 6.63 ± 3.49 L
clearance [1, 3]: 123 mL/min
half-life [1, 3]: 2.3 ± 1.23 h
C0 [1, 3]: 36600 ± 3840 ng/mL
AUC(0-inf) [1, 4]: 8460 ± 430 ng·h/mL
AUC(0-t) [1, 4]: 8270 ± 380 ng·h/mL
MRT [1, 4]: 1.08 ± 0.53 h
Vd [1, 4]: 12.8 ± 5.5 L
clearance [1, 4]: 197 mL/min
half-life [1, 4]: 2.32 ± 1.33 h
C0 [1, 4]: 46700 ± 15200 ng/mL
AUC(0-inf) [1, 5]: 17800 ± 3040 ng·h/mL
AUC(0-t) [1, 5]: 17800 ± 3030 ng·h/mL
MRT [1, 5]: 0.73 ± 0.05 h
Vd [1, 5]: 6.36 ± 1.48 L
clearance [1, 5]: 144 mL/min
half-life [1, 5]: 1.64 ± 0.39 h
C0 [1, 5]: 79200 ± 18900 ng/mL
AUC(0-inf) [1, 6]: 22700 ± 2570 ng·h/mL
AUC(0-t) [1, 6]: 22200 ± 2480 ng·h/mL
Cmax [1, 6]: 7920 ± 1770 ng/mL
MRT [1, 6]: 4.23 ± 0.2 h
Tmax [1, 6]: 2.83 ± 0.41 h
half-life [1, 6]: 1.84 ± 0.29 h
bioavailability ([1]; dog, plasma, beagle dogs, estimated via AUC0→∞ of oral (60 mg/kg) and intravenous administration, read-out: mean absolute bioavailability (%F)): 34.8%
concentration at 1.5 h ([1]; one beagle dog plasma sample, 1.5 h after intravenous 10 mg/kg, read-out: assayed plasma concentration): 930 ng/mL
RE (relative error vs spiked) ([2]; ambient temperature 2 h, spiked 20 ng/mL): 5.0%
Measured (mean ± SD) ([2]; ambient temperature 2 h, spiked 20 ng/mL, beagle dog plasma): 21.00 ± 1.42 ng/mL
RE (relative error vs spiked) ([2]; ambient temperature 2 h, spiked 800 ng/mL): −3.6%
Measured (mean ± SD) ([2]; ambient temperature 2 h, spiked 800 ng/mL, beagle dog plasma): 771.45 ± 23.94 ng/mL
Measured (mean ± SD) ([2]; autosampler 24 h (extracted samples), spiked 20 ng/mL): 20.10 ± 1.22 ng/mL
Measured (mean ± SD) ([2]; autosampler 24 h (extracted samples), spiked 800 ng/mL): 772.49 ± 29.64 ng/mL
RE (relative error vs spiked) ([2]; autosampler 24 h, spiked 20 ng/mL): 0.5%
RE (relative error vs spiked) ([2]; autosampler 24 h, spiked 800 ng/mL): −3.4%
long-term stability in plasma (in words) [2]: stable
long-term stability in plasma (in words) ([2]; listed as sodiusm danshensu): Excellent stability
ambient temperature stability in plasma (in words) ([2]; beagle dog plasma, ambient temperature for 2 h): Excellent stability
autosampler stability (in words) ([2]; extracted samples kept in the autosampler for 24 h): No degradation
RE (relative error vs spiked) ([2]; long-term 20 days at −80 °C, spiked 20 ng/mL): 2.5%
Measured (mean ± SD) ([2]; long-term 20 days at −80 °C, spiked 20 ng/mL, beagle dog plasma): 20.50 ± 1.13 ng/mL
RE (relative error vs spiked) ([2]; long-term 20 days at −80 °C, spiked 800 ng/mL): 3.1%
Measured (mean ± SD) ([2]; long-term 20 days at −80 °C, spiked 800 ng/mL, beagle dog plasma): 825.29 ± 55.20 ng/mL
freeze-thaw stability, deviation of the concentration (in words) ([2]; three cycles of freezing and thawing): within the acceptable limit
RE (relative error vs spiked) ([2]; three freeze-thaw cycles at −80 °C, spiked 20 ng/mL): 7.2%
Measured (mean ± SD) ([2]; three freeze-thaw cycles at −80 °C, spiked 20 ng/mL, beagle dog plasma): 21.45 ± 0.88 ng/mL
RE (relative error vs spiked) ([2]; three freeze-thaw cycles at −80 °C, spiked 800 ng/mL): −0.2%
Measured (mean ± SD) ([2]; three freeze-thaw cycles at −80 °C, spiked 800 ng/mL, beagle dog plasma): 798.54 ± 47.76 ng/mL
